Reference: article PMC9166630, “SAR Probing of KX2-391 Provided Analogues With Juxtaposed Activity Profile Against Major Oncogenic Kinases” (Frontiers in Oncology, 2022)
Like-named read-outs stand apart in the source and are kept apart here.

Legend:
[1] = system: MV4-11 leukemia cell line; experiment: CellTiter-Blue cell viability assay, MV4-11; format: cell-based; conditions: Homo sapiens
Experimental: (§1) HL60, K562, MV4-11 and NB4 were purchased from CLS Cell Line Service GmbH (Eppelheim, Germany). All cell lines were cultured in RPMI-1640 medium supplemented with 10% fetal bovine serum (FBS) (Thermo Fisher Scientific) and 0.1% ciprofloxacin (2.5mg/ml; Cipla Limited; Mumbai, India), and were maintained at 37°C in the presence of 21% O2 and 5% CO2.
(§2) Cell viability was determined using the CellTiter®-Blue Cell Viability Assay kit (Promega, Madison, WI, USA). Approximately 10^4 cells were counted and plated in a 96-well plate in the presence of test compounds ranging from 0.01 to 10 or 20 µM in triplicate and were incubated for 48 h at 37°C in a humidified incubator. After the incubation period was complete, 20 µL of CellTiter®-Blue Cell Viability Assay reagent was added to each well and incubated for additional 2 h for the development of florescence. Florescence was measured at Ex/Em 540/590 on SpectraMax® i3 Multi-Mode microplate reader (Molecular Devices, LLC; San Jose, CA, USA) and plotted against drug concentration to determine the IC50 of the test compounds. The IC50 was obtained by non-linear regression model using GraphPad Prism 6.07 (GraphPad Software, Inc, USA).

[2] = system: K562 leukemia cell line; experiment: CellTiter-Blue cell viability assay, K562; format: cell-based; conditions: Homo sapiens
Experimental: as §1, §2

[3] = system: HL60 leukemia cell line; experiment: CellTiter-Blue cell viability assay, HL60; format: cell-based; conditions: Homo sapiens, HL-60
Experimental: as §1, §2

[4] = system: MCF7 (breast) cancer cells; experiment: SRB cytotoxicity assay, MCF7; format: cell-based, human; conditions: maximum tested concentration 50 µM, read-out: IC50 ± SEM, MCF7
Experimental: (§3) MCF7 (breast) or N87 (stomach) cancer cells were grown in Roswell Park Memorial Institute-1640 (RPMI-1640) medium (Thermo Fisher Scientific, Inc; Waltham, MA, USA), supplemented with 10% heat inactivated fetal bovine serum (FBS), 50 units/mL of penicillin and […] of streptomycin and maintained at 37°C in a humidified atmosphere containing 5% CO2. The cells were maintained as “monolayer culture” by serial subculturing.
(§4) Cytotoxicity was determined using Sulforhodamine B (SRB) method as previously described by Skehan et al. ([66]). Exponentially growing MCF7 and N87 cells were collected using 0.25% Trypsin-EDTA and were then seeded in 96-well plates at a density of 1000-2000 cells/well in 10% FBS and penicillin/streptomycin supplemented RPMI-1640 medium. After 24 h, cells were treated with different concentrations of test compounds and incubated for 72 h at 37°C in a humidified atmosphere containing 5% CO2. Next, the cells were fixed by adding trichloroacetic acid (TCA, 10% final conc. in wells) directly to the wells and incubated for 1 h at 4°C, then cells were washed with distilled water 5 times to remove excess TCA, media, serum proteins, and metabolites, followed by air drying. After that, the fixed cells were stained with 0.4% SRB dissolved in 1% acetic acid for 10 min at room temperature, and excess stain was removed by quickly rinsing with 1% acetic acid. The residual acetic acid was removed completely by air drying the plates for 24 h, and the dye was solubilized with Tris buffer (pH= 7.4, 10 mM) for 5 min on a shaker at 1600 rpm. The optical density (OD) of each well was measured spectrophotometrically at 564 nm with an ELISA microplate reader (ChroMate-4300, FL, USA). The IC50 values (concentration of drug resulting in 50% reduction in cell survival) were calculated according to the equation for Boltzman sigmoidal concentration–response curve using the nonlinear regression fitting models (Graph Pad, Prism Version 5).

[5] = system: HCT116 cell line; experiment: MTT anti-proliferative assay, HCT116; format: cell-based, human; conditions: maximum tested concentration 50 µM, read-out: IC50 ± SEM, HCT116
Experimental: The test compounds were evaluated for anti-proliferative activity using the MTT viability assay against HCT116 cell line. Cells were seeded in triplicate in 96-well plates at a density of 10x 10^3 cells/mL in a total volume of 200 µL per well. 0.1% of DMSO was used as a vehicle control. Each well was treated with 2 µL test compounds, which had been pre-prepared as stock solutions in […] to furnish the concentration range of study, 0.1 µM to 50 µM, and re-incubated for a further 72 h at 37°C in a humidified atmosphere containing 5% CO2. The culture medium was then removed, and the cells were washed with 100 µL PBS and 100 µL MTT was added, to reach a final concentration of 1 mg/mL MTT. Cells were incubated for 3 h in darkness at 37°C. After that, MTT solution was removed and MTT was solubilized by adding […] DMSO. The cells were maintained at room temperature in darkness for 20 min to ensure thorough color diffusion before reading the absorbance using a microplate reader at 570 nm. All experiments were conducted in triplicates. Results were expressed as percentage viability relative to vehicle control (100%). Dose response curves were plotted and IC50 values (concentration of drug resulting in 50% reduction in cell survival) were obtained using the commercial software package Prism (GraphPad Software, Inc., La Jolla, CA, USA).

[6] = system: NB4 leukemia cell line; experiment: CellTiter-Blue cell viability assay, NB4; format: cell-based, human; conditions: Homo sapiens
Experimental: as §1, §2

[7] = system: N87 (stomach) cancer cells; experiment: SRB cytotoxicity assay, N87; format: cell-based; conditions: Homo sapiens, 72 h, maximum tested concentration 50 µM, read-out: IC50 ± SEM, N87
Experimental: as §3, §4

[8] = CellTiter-Blue, 48 h, maximum tested concentration 20 µM, read-out: IC50 ± SEM, MV4-11
[9] = CellTiter-Blue, 48 h, maximum tested concentration 20 µM, read-out: IC50 ± SEM, K562
[10] = CellTiter-Blue, 48 h, maximum tested concentration 20 µM, read-out: IC50 ± SEM, HL60
[11] = 48 h, CellTiter-Blue, 48 h, maximum tested concentration 20 µM, read-out: IC50 ± SEM, NB4

| Structure (SMILES) | IC50 [1, 8] [µM] | IC50 [2, 9] [µM] | IC50 [3, 10] [µM] | melting point [°C] | IC50 ([5]; Homo sapiens, HCT-116, 72 h) [µM] | IC50 [6, 11] [µM] | IC50 ([5]; 72 h) [µM] | IC50 ([1]; positive reference for validation, read-out: IC50, MV411) [µM] | IC50 ([2]; positive reference for validation, read-out: IC50, K562) [µM] | IC50 ([3]; positive reference for validation, read-out: IC50, HL60) [µM] | IC50 ([6]; positive reference for validation, read-out: IC50, NB4) [µM] | IC50 ([4]; Homo sapiens, MCF7, 72 h) [µM] | IC50 [7] [µM] | IC50 ([4]; 72 h) [µM] |
| --- | --- | --- | --- | --- | --- | --- | --- | --- | --- | --- | --- | --- | --- | --- |
| O=C(Cc1ccc(NC(=O)c2cccc(Cl)c2)cc1)NCc1ccco1 [Compound 4r, 3-Chloro-N-(4-(2-((furan-2-ylmethyl)amino)-2-oxoethyl)phenyl)benzamide] | > 20 | > 20 | > 20 | 206 | – | – | – | – | – | – | – | – | – | – |
| Cc1ccc(S(=O)(=O)Nc2ccc(CC(=O)NCc3ccccc3)cc2)cc1 [Compound 4g, N-benzyl-2-(4-((4-methylphenyl)sulfonamido)phenyl)acetamide] | > 20 | > 20 | > 20 | 140 | > 50 | – | – | – | – | – | – | > 50 | – | – |
| O=C(Cc1ccc(NC(=O)c2cncc(Cl)c2)cc1)NCc1ccccc1 [Compound 4o, N-(4-(2-(benzylamino)-2-oxoethyl)phenyl)-5-chloronicotinamide] | > 20 | > 20 | > 20 | 231 | – | 5.89 ± 1.11 | – | – | – | – | – | – | – | – |
| CCC(=O)Nc1ccc(CC(=O)NCc2ccccc2)cc1 [Compound 4b, N-(4-(2-(benzylamino)-2-oxoethyl)phenyl)propionamide] | > 20 | > 20 | > 20 | 210 | > 50 | – | – | – | – | – | – | 27.7 ± 9.38 | 32 ± 6.34 | – |
| O=C(Cc1ccc(NC(=O)c2cccc(Cl)c2)cc1)NCCc1ccccc1 [Compound 4q, 3-Chloro-N-(4-(2-oxo-2-(phenethylamino)ethyl)phenyl)benzamide] | > 20 | > 20 | > 20 | 160 | – | – | – | – | – | – | – | – | – | – |
| CC(=O)Nc1ccc(CC(=O)NCc2ccccc2)cc1 [Compound 4a, 2-(4-acetamidophenyl)-N-benzylacetamide] | – | – | – | – | 18.8 | – | 18.8 ± 3.06 | – | – | – | – | 29.3 | > 50 | 29.3 ± 4.64 |
| O=C(Cc1ccc(NC(=O)c2ccc(Cl)cc2)cc1)NCc1ccccc1 [Compound 4f, N-(4-(2-(benzylamino)-2-oxoethyl)phenyl)-4-chlorobenzamide] | – | – | – | 190 | – | – | – | – | – | – | – | > 50 | 48.3 ± 7.44 | – |
| O=C(Cc1ccc(-c2ccc(OCCN3CCOCC3)cc2)cn1)NCc1ccccc1 [KX2-391, Tirbanibulin] | – | – | – | – | – | – | – | 0.00419 | 0.0145 | 0.0121 | 0.0033 | – | – | – |
| O=C(Cc1ccc(NC(=O)c2ccc(Cl)o2)cc1)NCc1ccccc1 [Compound 4p, N-(4-(2-(benzylamino)-2-oxoethyl)phenyl)-5-chlorofuran-2-carboxamide] | > 20 | > 20 | > 20 | 217 | – | > 20 | – | – | – | – | – | – | – | – |
| Nc1ccc(CC(=O)NCc2ccccc2)cc1 [Compound 3a, 2-(4-aminophenyl)-N-benzylacetamide] | – | – | – | 140 to 141 | > 100 | – | > 50 | – | – | – | – | > 100 | > 50 | > 50 |

Second part, led by results:

| IC50 [1, 8] [µM] | IC50 [2, 9] [µM] | IC50 [3, 10] [µM] | melting point [°C] | IC50 ([5]; Homo sapiens, HCT-116, 72 h) [µM] | IC50 [6, 11] [µM] | IC50 ([5]; 72 h) [µM] | IC50 ([1]; positive reference for validation, read-out: IC50, MV411) [µM] | IC50 ([2]; positive reference for validation, read-out: IC50, K562) [µM] | IC50 ([3]; positive reference for validation, read-out: IC50, HL60) [µM] | IC50 ([6]; positive reference for validation, read-out: IC50, NB4) [µM] | Structure (SMILES) | IC50 ([4]; Homo sapiens, MCF7, 72 h) [µM] | IC50 [7] [µM] | IC50 ([4]; 72 h) [µM] |
| --- | --- | --- | --- | --- | --- | --- | --- | --- | --- | --- | --- | --- | --- | --- |
| 2.87 ± 0.3 | 4 ± 1.5 | 6.24 ± 3.3 | – | – | 1.74 ± 0.16 | – | – | – | – | – | O=C(Cc1ccc(NC(=O)c2cccc(Cl)c2)cn1)NCc1ccccc1 [Compound 4s, N-(6-(2-(benzylamino)-2-oxoethyl)pyridin-3-yl)-3-chlorobenzamide] | – | – | – |
| 20 ± 0.16 | 13.04 ± 0.04 | > 20 | 186 | – | 5.33 ± 1.43 | – | – | – | – | – | COc1ccc(C(=O)Nc2ccc(CC(=O)NCc3ccccc3)cc2)cc1Cl [Compound 4j, N-(4-(2-(benzylamino)-2-oxoethyl)phenyl)-3-chloro-4-methoxybenzamide] | – | – | – |
| 18.85 ± 0.12 | 12.96 ± 0.08 | > 20 | 147 | – | 8.77 ± 1.75 | – | – | – | – | – | O=C(Cc1ccc(NC(=O)c2ccc(OCCN3CCOCC3)c(Cl)c2)cc1)NCc1ccccc1 [Compound 4l, N-(4-(2-(benzylamino)-2-oxoethyl)phenyl)-3-chloro-4-(2-morpholinoethoxy) benzamide] | – | – | – |
| 2.4 ± 0.49 | 4.23 ± 2.44 | 3.27 ± 0.15 | – | – | 1.96 ± 1.33 | – | – | – | – | – | COc1cccc(C(=O)Nc2ccc(CC(=O)NCc3ccccc3)cc2)c1 [Compound 4h, N-(4-(2-(benzylamino)-2-oxoethyl)phenyl)-3-methoxybenzamide] | – | – | – |
| 6.33 ± 4.24 | 12.4 ± 1.39 | > 20 | – | – | 3.46 ± 0.06 | – | – | – | – | – | O=C(Cc1ccc(NC(=O)c2ccnc(Cl)c2)cc1)NCc1ccccc1 [Compound 4m, N-(4-(2-(benzylamino)-2-oxoethyl)phenyl)-2-chloroisonicotinamide] | – | – | – |
| 7.95 ± 0.31 | > 20 | > 20 | 215 | – | 9.88 ± 2.8 | – | – | – | – | – | COc1ccc(C(=O)Nc2ccc(CC(=O)NCc3ccccc3)cc2)cc1OC [Compound 4k, N-(4-(2-(benzylamino)-2-oxoethyl)phenyl)-3,4-dimethoxybenzamide] | – | – | – |
| 11.9 ± 0.96 | > 20 | 5.27 ± 1.94 | 212 | 19.7 ± 4.79 | – | – | – | – | – | – | O=C(Cc1ccc(NC(=O)c2ccccc2)cc1)NCc1ccccc1 [Compound 4c, N-(4-(2-(benzylamino)-2-oxoethyl)phenyl)benzamide] | 5.11 ± 3.03 | > 50 | – |
| 3.2 ± 0.09 | 2.68 ± 0.03 | 2.96 ± 0.25 | 214 | 19 ± 4.18 | – | – | – | – | – | – | O=C(Cc1ccc(NC(=O)c2cccc(F)c2)cc1)NCc1ccccc1 [Compound 4d, N-(4-(2-(benzylamino)-2-oxoethyl)phenyl)-3-fluorobenzamide] | 6.55 ± 1.34 | > 50 | – |
| 16.3 ± 4.43 | 17.4 ± 2.63 | > 20 | – | – | > 20 | – | – | – | – | – | O=C(Cc1ccc(NC(=O)c2cccc(OCCN3CCOCC3)c2)cc1)NCc1ccccc1 [Compound 4i, N-(4-(2-(benzylamino)-2-oxoethyl)phenyl)-3-(2-morpholinoethoxy)benzamide] | – | – | – |
